Measurements taken from patent publication US5294611A, “Angiotensin II receptor blocking 2,3,6 substituted quinazolinones” (American Cyanamid Company, priority 1993, dated 1994).

What follows are compounds tested against T1, Angiotensin II Receptor (Bos taurus, UniProt P25104) (assay: Receptor Binding Assay: displacement of [^125 I](Sar^1,Ile^8)AngII from adrenal cortex microsomal membranes).
T1 construct: The brownish tissue forming the adrenal cortex is scraped off and finely minced with scissors before homogenization; tissue local slaughter house (maxwell-Cohen); host or cells: beef adrenal cortex, 100,000 x g microsomal membranes
T1 sequence (P25104 1-359): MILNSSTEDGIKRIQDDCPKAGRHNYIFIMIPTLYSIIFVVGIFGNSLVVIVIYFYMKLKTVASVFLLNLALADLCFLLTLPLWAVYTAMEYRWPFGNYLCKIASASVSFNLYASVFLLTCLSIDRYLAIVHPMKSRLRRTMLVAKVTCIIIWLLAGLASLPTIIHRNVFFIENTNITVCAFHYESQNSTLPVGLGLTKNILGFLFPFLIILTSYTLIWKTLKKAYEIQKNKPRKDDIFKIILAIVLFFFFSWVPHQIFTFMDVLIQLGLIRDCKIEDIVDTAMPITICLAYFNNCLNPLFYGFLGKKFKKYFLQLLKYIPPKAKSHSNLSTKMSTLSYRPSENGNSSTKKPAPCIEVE
Set-up: species or system beef (bovine adrenals)
From the text: Beef adrenals are obtained from a local slaughter house (maxwell-Cohen). [^125 I](Sar^1,Ile^8)AngII, S.A. 2200 Ci/mmole, is purchased from Dupont (NEN®, Boston, Mass.). All unlabeled AngII analogs, Dimethylsulfoxide (DMSO), nucleotides, bovine serum albumin (BSA) are purchased from Sigma Chemical Co., St. Louis, Mo. U.S.A.
Approximately sixteen (16) to twenty (20) beef adrenal glands are processed as follows: fresh adrenal glands received on crushed ice are cleaned of fatty tissues and the tough membranes encapsulating the glands are removed and discarded. The brownish tissue forming the adrenal cortex is scraped off and finely minced with scissors before homogenization. Care is taken to avoid contamination with medullary tissue during dissection. The scraped cortices are suspended in twenty volumes of an ice-cold buffer medium consisting of 10 mM Tris.HCl (pH 7.4 at 22° C.) and containing 1.0 mM EDTA and 0.2M sucrose. Unless otherwise indicated, all subsequent operations are done at 4° C. […] The homogenate is centrifuged first at low speed (3,000× g) for 10 min. The resulting pellet is discarded and the supernatant fluid recentrifuged at 10,000× g for 15 minutes to give a P2 pellet. This P2 pellet is discarded and the liquid phase is carefully decanted off in clean centrifuge tubes and recentrifuged at high speed (100,000× g) for 60 min. The translucent final pellet is harvested and combined in a small volume (20-50.0 ml) of 50.0 mM Tris.HCl buffer, pH 7.2. A 100 ul aliquot is withdrawn and the protein content of the preparation is determined by the Lowry's method (Lowry, O. H., Rosebrough, N. F., Parr, A. L. and Randall, R. J., Protein measurement with Folin phenol reagent. J. Biol. Chem., 48, 265-275; 1951). The pelleted membrane is reconstituted in 50.0 mM Tris.HCl buffer containing 0.1 mM of phenylmethylsulfonyl fluoride (PMSF) to give approximately a protein concentration of 2.5 mg per ml of tissue suspension. The membrane preparation is finally aliquoted in 1.0 ml volumes and stored at -70° C. until use in the binding assays.
The binding of [^125 I](Sar^1,Ile^8)AngII to microsomal membranes is initiated by the addition of reconstituted membranes (1:10 vols.) in freshly made 50.0 mM Tris.HCl buffer, pH 7.4 containing 0.25% heat inactivated bovine serum albumin (BSA): 80 ul membrane protein (10 to 20 ug/assay) to wells already containing 100 ul of incubation buffer (as described above) and 20 ul [^125 I](Sar^1,ILE^8)AngII (Specific Activity, 2200 Ci/mmole). Non-specific binding is measured in the presence of 1.0 uM unlabeled (Sar^1,ILE^8)AngII, added in 20 ul volume. […] In competition studies, experimental compounds are diluted in dimethylsulfoxide (DMSO) and added in 20 ul to wells before the introduction of tissue membranes. […] Assays are performed in triplicate. The wells are left undisturbed for 60 min. at room temperature. Following incubation, all wells are harvested at once with a Brandel® Harvester especially designed for a 96 well plate (Brandel® Biomedical Research & Development Labs. Inc., Gaithersburg, Md., U.S.A.). The filter discs are washed with 10×1.0 ml of cold 0.9% NaCl to remove unbound ligand. […] This method is routinely used. The filters are removed from the filter grid and counted in a Parkard® Cobra Gamma Counter for 1 min. (Packard Instrument Co., Downers Grove, Ill., U.S.A.). The binding data are analyzed by the non-linear interactive "LUNDON-1" program (LUNDON SOFTWARE Inc., Cleveland, Ohio U.S.A.).

| SMILES | IC50 [nM] |
| --- | --- |
| CCCCc1nc2ccc([C@H]3[C@@H]4C(=O)CC[C@@H]4ON3C)cc2c(=O)n1Cc1ccc(-c2ccccc2-c2nnn[nH]2)cc1 (relative stereo) [Example 48] | 57 |
| CCCCc1nc2ccc([C@@H]3[C@H]4C(=O)CCC[C@H]4ON3C)cc2c(=O)n1Cc1ccc(-c2ccccc2-c2nnn[nH]2)cc1 (relative stereo) [Example 49] | 880 |
| CCCCc1nc2ccc([C@H]3[C@@H]4C(=O)OC[C@@H]4ON3C)cc2c(=O)n1Cc1ccc(-c2ccccc2-c2nnn[nH]2)cc1 (relative stereo) [Example 53] | 71 |
| CCCCc1nc2ccc([C@H]3[C@@H]4C(=O)CC[C@@H]4ON3Cc3ccccc3)cc2c(=O)n1Cc1ccc(-c2ccccc2-c2nnn[nH]2)cc1 (relative stereo) [Example 55] | 78 |
| CCCCc1nc2ccc([C@H]3[C@@H]4C(=O)OC[C@@H]4ON3Cc3ccccc3)cc2c(=O)n1Cc1ccc(-c2ccccc2-c2nnn[nH]2)cc1 (relative stereo) [Example 57] | 180 |
| CCCCc1nc2ccc([C@H]3[C@@H]4C5CCC(C5)[C@@H]4ON3C)cc2c(=O)n1Cc1ccc(-c2ccccc2-c2nnn[nH]2)cc1 (stereo partly drawn) [Example 51] | 150 |
